Data reported in publication PMC5681653, “Structural basis of arrestin-3 activation and signaling” (Nature Communications, 2017).

How the values were obtained:
arrestin-3 (1-393) = molecular target: T1, arrestin-3 (1-393) (Bos taurus, UniProt P32120); assay: microscale thermophoresis, two-site fit, pre-IR fluorescence change; assay type: binding
T1 construct: gene ARRB2; residues 1-393 (stop codon at L394, deletes 394-408), pTrcHisB, E. coli BL21 Gold, purified by heparin, Q/SP and size exclusion columns; 43 kD monomer, 134 kD trimer with IP6
T1 sequence (P32120 1-393 isoform P32120-2): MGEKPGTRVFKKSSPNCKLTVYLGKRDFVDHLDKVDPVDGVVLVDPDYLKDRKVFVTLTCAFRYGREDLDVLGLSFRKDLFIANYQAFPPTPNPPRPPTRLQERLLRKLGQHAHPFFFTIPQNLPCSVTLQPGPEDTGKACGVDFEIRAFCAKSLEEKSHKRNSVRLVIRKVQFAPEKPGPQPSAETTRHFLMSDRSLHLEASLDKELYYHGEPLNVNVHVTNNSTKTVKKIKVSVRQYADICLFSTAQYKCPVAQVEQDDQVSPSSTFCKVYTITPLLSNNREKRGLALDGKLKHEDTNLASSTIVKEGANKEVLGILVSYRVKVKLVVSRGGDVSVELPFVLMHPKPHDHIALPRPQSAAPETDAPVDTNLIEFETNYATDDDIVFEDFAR

His tagged JNK3α2 = His tagged JNK3α2 (UniProt P53779); assay: pull-down; His tagged JNK3α2 (10 µg) on Ni-NTA resin, arrestin-3 (10 µg) added with and without 100 µM IP6; wash 20 mM MOPS pH 7.4, 150 mM NaCl, 25 mM imidazole; eluted with 250 mM imidazole; Coomassie and Western, densitometry
His tagged JNK3α2, sequence (P53779 whole entry): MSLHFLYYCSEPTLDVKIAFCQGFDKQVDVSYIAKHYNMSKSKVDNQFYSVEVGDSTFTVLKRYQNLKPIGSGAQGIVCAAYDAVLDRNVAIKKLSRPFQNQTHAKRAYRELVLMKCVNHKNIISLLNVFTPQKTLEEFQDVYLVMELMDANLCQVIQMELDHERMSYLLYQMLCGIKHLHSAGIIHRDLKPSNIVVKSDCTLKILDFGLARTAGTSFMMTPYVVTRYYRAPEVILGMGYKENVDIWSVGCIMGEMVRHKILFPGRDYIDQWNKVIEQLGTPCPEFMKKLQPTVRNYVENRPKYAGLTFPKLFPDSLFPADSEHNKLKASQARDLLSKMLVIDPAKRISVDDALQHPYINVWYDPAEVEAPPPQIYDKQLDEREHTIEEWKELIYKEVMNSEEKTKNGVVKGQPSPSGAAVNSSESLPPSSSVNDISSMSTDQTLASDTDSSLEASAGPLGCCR

Kd (arrestin-3 (1-393))	fold change of bound arrestin-3 with 100 µM IP6 against without IP6 (His tagged JNK3α2)	Compound
57 nM	–	O=P(O)(O)O[C@H]1[C@H](OP(=O)(O)O)[C@@H](OP(=O)(O)O)[C@H](OP(=O)(O)O)[C@@H](OP(=O)(O)O)[C@H]1OP(=O)(O)O [IP6]
–	2 fold	bovine arrestin-3 (1-393) (domain or fragment)
